# From patent US10952999B2, “Inhibitor of cyclin-dependent kinase CDK9” (GENFLEET THERAPEUTICS (SHANGHAI) INC., priority 2017, dated 2021)
# Assays:
# [1] = test system: acute myeloid leukemia cell line MOLM13; experiment: Cancer cell growth, Cell Titer-Glo cell viability assay, 72 hours; format: cell-based; settings: Homo sapiens; MOLM-13, 72 hours
# Excerpt: (§1) In the examples, we used acute myelocytic leukemia (AML) OCI-AML-3, acute promyelocytic leukemia cell line NB-4, MDS-RAEB (myelodysplastic syndrome-excess blasts type) cell line SKM-1, human leukemia cell Nomo-1, acute myeloid leukemia cell line MOLM14, acute myeloid leukemia cell line MOLM13, acute myeloid leukemia cell line MV4-11, acute myeloid leukemia cell line HL-60, acute myeloid leukemia cell line OCI-AML-2, histiocytic lymphoma U-937, acute B cell leukemia cell line MEC-1, acute B cell leukemia cell line MEC-2, acute megakaryoblastic leukemia CMK, hamster lung cell CHL, hamster ovary cell CHO, human non-small cell lung cancer cell H1975, human non-small cell lung cancer cell H358, human small cell lung cancer cell H209, human lung adenocarcinoma cell H1395, human non-small cell lung cancer cell PC-9, human lung cancer cell H3122, human non-small cell lung cancer cell H2122, human non-small cell lung cancer cell H1915, human lung adenocarcinoma cell H1355, human non-small cell lung cancer cell HCC827, human breast cancer cell MDA-MB-231, human breast cancer cell MDA-MB-468, human breast cancer cell MCF-7, human breast cancer cell T47D, human breast cancer cell SK-Br-3, the above cells were purchased from ATCC.
# (§2) Cell Titer-Glo® (Promega, USA) chemical self-luminescence cell viability assay kit was used to detect the number of viable cells by quantitatively measuring ATP in living cells, according to which to calculate GI50 and IC50.
# [2] = test system: acute myeloid leukemia cell line MOLM14; experiment: as above; format: cell-based; settings: Homo sapiens; MOLM-14, 72 hours
# Excerpt: as §1, §2
# [3] = test system: histiocytic lymphoma U-937; experiment: as above; format: cell-based; settings: Homo sapiens; U-937, 72 hours
# Excerpt: as §1, §2
# [4] = test system: MDS-RAEB (myelodysplastic syndrome-excess blasts type) cell line SKM-1; experiment: as above; format: cell-based; settings: Homo sapiens; SKM-1, 72 hours
# Excerpt: as §1, §2
# [5] = test system: acute B cell leukemia cell line MEC-1; experiment: as above; format: cell-based; settings: Homo sapiens, MEC1; MEC-1, 72 hours
# Excerpt: as §1, §2
# [6] = test system: acute B cell leukemia cell line MEC-2; experiment: as above; format: cell-based; settings: MEC2; MEC-2, 72 hours
# Excerpt: as §1, §2
# [7] = test system: acute myeloid leukemia cell line OCI-AML-2; experiment: as above; format: cell-based; settings: Homo sapiens; OCI-AML2, 72 hours
# Excerpt: as §1, §2
# [8] = test system: acute myeloid leukemia cell line HL-60; experiment: as above; format: cell-based; settings: Homo sapiens; HL-60, 72 hours
# Excerpt: as §1, §2
# [9] = test system: acute megakaryoblastic leukemia CMK; experiment: as above; format: cell-based
# Excerpt: as §1, §2
# [10] = test system: hamster ovary cell CHO; experiment: as above; format: cell-based; settings: for GI50: CHO, 72 hours
# Excerpt: as §1, §2
# [11] = test system: acute myelocytic leukemia (AML) OCI-AML-3; experiment: as above; format: cell-based; settings: Homo sapiens, OCI-AML-3; OCI-AML3, 72 hours
# Excerpt: as §1, §2
# [12] = test system: hamster lung cell CHL; experiment: as above; format: cell-based; settings: for GI50: CHL, 72 hours
# Excerpt: as §1, §2
# [13] = test system: acute myeloid leukemia cell line MV4-11; experiment: as above; format: cell-based; settings: Homo sapiens; MV4-11, 72 hours
# Excerpt: as §1, §2
# [14] = test system: acute promyelocytic leukemia cell line NB-4; experiment: as above; format: cell-based; settings: NB4, 72 hours
# Excerpt: as §1, §2
# [15] = test system: human leukemia cell Nomo-1; experiment: as above; format: cell-based; settings: Homo sapiens; Nomo-1, 72 hours
# Excerpt: as §1, §2
# [16] = target: T1, CDK11(non-active) (Homo sapiens, UniProt Q9BWU1); experiment: Enzyme assay for inhibition of CDK protein in vitro (Z-LYTE); format: biochemical
# T1 construct: purchased Invitrogen, USA
# Protocol: (§3) Compounds 1 and 14 diluted in DMSO were mixed with detected CDK protein (Invitrogen, USA) respectively, incubated at room temperature for 30 minutes; and then mixed with Kinase/Z-LYTE™ Peptide Substrate Mixture (Invitrogen, USA) and 4×ATP. The mixed system was transferred to a 384-well white opaque plate to react for 1 hour at room temperature; 5 μL of Development Solution (Invitrogen, USA) was added to react at room temperature for 1 hour, and finally Stop Reagent (Invitrogen, USA) was added to terminate the reaction and MD SpectraMax I3× microplate reader (Molecular Devices, USA) was used to read fluorescence values.
# [17] = target: T2, CDK8/cyclin C (Homo sapiens, UniProt P49336); experiment: as above; format: biochemical
# T2 construct: purchased Invitrogen, USA
# Protocol: as §3
# [18] = target: T3, CDK9/cyclin T1 (Homo sapiens, UniProt P50750); experiment: as above; format: biochemical
# T3 construct: purchased Invitrogen, USA
# Protocol: as §3
# [19] = target: T4, CDK3/cyclin E1 (Homo sapiens, UniProt Q00526); experiment: as above; format: biochemical
# T4 construct: purchased Invitrogen, USA
# Protocol: as §3
# [20] = test system: human non-small cell lung cancer cell PC-9; experiment: Cancer cell growth, Cell Titer-Glo cell viability assay, 72 hours; format: cell-based; settings: PC-9, 72 hours
# Excerpt: as §1, §2
# [21] = test system: human breast cancer cell MDA-MB-231; experiment: as above; format: cell-based; settings: MDA-MB-231, 72 hours
# Excerpt: as §1, §2
# [22] = test system: human non-small cell lung cancer cell H1975; experiment: as above; format: cell-based; settings: NCI-H1975, H1975, 72 hours
# Excerpt: as §1, §2
# [23] = test system: human non-small cell lung cancer cell H1915; experiment: as above; format: cell-based; settings: NCI-H1915, H1915, 72 hours
# Excerpt: as §1, §2
# [24] = test system: human lung cancer cell H3122; experiment: as above; format: cell-based; settings: NCI-H3122, H3122, 72 hours
# Excerpt: as §1, §2
# [25] = test system: human lung adenocarcinoma cell H1395; experiment: as above; format: cell-based; settings: NCI-H1395, H1395, 72 hours
# Excerpt: as §1, §2
# [26] = test system: human non-small cell lung cancer cell H2122; experiment: as above; format: cell-based; settings: NCI-H2122, H2122, 72 hours
# Excerpt: as §1, §2
# [27] = test system: human small cell lung cancer cell H209; experiment: as above; format: cell-based; settings: NCI-H209, H209, 72 hours
# Excerpt: as §1, §2
# [28] = test system: human breast cancer cell MCF-7; experiment: as above; format: cell-based; settings: MCF7, MCF-7, 72 hours
# Excerpt: as §1, §2
# [29] = test system: human breast cancer cell SK-Br-3; experiment: as above; format: cell-based; settings: SK-Br-3, 72 hours
# Excerpt: as §1, §2
# [30] = test system: human breast cancer cell MDA-MB-468; experiment: as above; format: cell-based; settings: MDA-MB-468, 72 hours
# Excerpt: as §1, §2
# [31] = test system: human non-small cell lung cancer cell H358; experiment: as above; format: cell-based; settings: NCI-H358, H358, 72 hours
# Excerpt: as §1, §2
# [32] = test system: human breast cancer cell T47D; experiment: as above; format: cell-based
# Excerpt: as §1, §2
# [33] = test system: human lung adenocarcinoma cell H1355; experiment: as above; format: cell-based; settings: NCI-H1355, H1355, 72 hours
# Excerpt: as §1, §2
# [34] = test system: human non-small cell lung cancer cell HCC827; experiment: as above; format: cell-based; settings: HCC827, 72 hours
# Excerpt: as §1, §2
# T2 sequence (P49336 whole entry): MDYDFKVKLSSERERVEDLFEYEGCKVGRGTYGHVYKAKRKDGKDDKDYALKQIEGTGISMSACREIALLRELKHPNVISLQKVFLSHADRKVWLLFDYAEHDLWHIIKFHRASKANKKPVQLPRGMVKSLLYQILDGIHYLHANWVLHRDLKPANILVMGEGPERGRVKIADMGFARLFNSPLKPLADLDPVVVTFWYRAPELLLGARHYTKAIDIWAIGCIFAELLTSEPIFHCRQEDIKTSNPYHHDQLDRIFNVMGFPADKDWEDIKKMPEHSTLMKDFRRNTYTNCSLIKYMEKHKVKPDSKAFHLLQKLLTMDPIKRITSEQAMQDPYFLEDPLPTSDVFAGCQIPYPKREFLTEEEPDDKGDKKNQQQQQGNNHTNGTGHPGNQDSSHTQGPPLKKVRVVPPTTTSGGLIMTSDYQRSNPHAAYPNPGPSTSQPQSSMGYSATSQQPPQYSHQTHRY
# T2 sequence (P24863 whole entry partner): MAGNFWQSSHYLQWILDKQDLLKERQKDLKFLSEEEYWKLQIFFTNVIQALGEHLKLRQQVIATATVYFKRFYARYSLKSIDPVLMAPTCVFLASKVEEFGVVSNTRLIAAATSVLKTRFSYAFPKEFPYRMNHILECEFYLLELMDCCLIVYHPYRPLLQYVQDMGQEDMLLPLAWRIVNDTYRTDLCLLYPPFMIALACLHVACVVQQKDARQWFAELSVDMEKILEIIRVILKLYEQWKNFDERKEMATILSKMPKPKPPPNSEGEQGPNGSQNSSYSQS
# T3 sequence (P50750 whole entry): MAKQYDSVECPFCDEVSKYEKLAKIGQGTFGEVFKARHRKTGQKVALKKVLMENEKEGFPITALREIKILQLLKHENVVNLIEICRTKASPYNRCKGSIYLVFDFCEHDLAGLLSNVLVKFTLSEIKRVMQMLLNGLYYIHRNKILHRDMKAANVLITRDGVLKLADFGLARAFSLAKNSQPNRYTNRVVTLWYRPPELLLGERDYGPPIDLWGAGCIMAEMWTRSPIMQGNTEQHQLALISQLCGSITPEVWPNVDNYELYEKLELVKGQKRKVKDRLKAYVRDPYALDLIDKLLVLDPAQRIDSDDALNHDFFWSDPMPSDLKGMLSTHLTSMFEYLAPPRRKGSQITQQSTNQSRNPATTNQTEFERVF
# T3 sequence (O60563 whole entry partner): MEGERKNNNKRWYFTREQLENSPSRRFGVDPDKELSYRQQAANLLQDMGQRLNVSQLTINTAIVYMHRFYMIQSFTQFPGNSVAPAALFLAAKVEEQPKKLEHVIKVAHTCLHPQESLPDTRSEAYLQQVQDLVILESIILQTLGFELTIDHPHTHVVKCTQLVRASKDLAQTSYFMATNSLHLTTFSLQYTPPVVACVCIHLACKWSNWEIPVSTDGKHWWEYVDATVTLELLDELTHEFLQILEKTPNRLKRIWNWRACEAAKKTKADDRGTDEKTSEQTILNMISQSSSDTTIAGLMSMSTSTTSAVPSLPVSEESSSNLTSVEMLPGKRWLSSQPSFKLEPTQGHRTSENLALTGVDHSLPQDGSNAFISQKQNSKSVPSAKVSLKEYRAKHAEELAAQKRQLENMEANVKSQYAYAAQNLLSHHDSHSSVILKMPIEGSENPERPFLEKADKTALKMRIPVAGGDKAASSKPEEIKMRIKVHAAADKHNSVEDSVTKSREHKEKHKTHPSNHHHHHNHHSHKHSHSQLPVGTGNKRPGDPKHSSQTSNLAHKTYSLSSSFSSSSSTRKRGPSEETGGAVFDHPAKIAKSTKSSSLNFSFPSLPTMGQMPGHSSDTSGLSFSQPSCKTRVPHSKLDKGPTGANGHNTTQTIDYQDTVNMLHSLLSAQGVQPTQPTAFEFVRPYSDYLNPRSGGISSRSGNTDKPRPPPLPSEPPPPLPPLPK
# T1 sequence (Q9BWU1 whole entry): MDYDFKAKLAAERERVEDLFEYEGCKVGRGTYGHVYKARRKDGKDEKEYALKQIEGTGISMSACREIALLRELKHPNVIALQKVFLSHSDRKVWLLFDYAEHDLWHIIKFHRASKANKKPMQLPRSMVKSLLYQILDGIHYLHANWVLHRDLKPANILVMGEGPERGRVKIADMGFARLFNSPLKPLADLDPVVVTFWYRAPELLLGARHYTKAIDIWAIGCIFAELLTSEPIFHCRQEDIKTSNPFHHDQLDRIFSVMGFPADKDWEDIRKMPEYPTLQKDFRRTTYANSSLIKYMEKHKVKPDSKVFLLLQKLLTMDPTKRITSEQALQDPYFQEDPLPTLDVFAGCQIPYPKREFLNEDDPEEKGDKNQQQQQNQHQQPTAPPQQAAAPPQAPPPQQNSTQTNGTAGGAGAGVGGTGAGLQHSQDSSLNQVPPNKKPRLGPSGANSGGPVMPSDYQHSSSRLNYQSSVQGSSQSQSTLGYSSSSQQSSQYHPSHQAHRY
# T4 sequence (Q00526 whole entry): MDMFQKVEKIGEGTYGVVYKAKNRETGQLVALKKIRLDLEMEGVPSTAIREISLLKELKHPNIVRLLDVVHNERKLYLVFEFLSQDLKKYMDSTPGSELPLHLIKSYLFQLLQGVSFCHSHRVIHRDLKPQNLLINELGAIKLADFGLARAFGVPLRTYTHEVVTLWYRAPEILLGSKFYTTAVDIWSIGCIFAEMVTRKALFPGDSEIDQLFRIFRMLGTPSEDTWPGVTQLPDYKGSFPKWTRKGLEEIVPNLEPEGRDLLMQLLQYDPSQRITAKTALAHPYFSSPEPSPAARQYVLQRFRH
# T4 sequence (P24864 whole entry partner): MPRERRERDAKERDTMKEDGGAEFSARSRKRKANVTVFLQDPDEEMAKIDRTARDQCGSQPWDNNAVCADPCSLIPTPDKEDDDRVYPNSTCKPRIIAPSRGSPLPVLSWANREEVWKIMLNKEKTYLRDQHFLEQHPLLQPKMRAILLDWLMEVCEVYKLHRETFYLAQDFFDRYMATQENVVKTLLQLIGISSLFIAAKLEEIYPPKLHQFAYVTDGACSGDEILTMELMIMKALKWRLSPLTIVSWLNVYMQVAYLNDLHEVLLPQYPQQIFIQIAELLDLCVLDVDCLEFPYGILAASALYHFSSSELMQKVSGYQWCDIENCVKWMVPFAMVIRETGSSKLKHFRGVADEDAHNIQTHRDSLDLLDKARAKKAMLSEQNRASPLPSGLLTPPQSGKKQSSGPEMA
SMILES,GI50 [1],GI50 [2],GI50 [3],GI50 [4],GI50 [5],GI50 [6],GI50 [7],GI50 [8],GI50 [9],GI50 [11],GI50 [12],GI50 [13],GI50 [14],GI50 [15],GI50 [10],other results
"CC(=O)c1c(C)c2cnc(Nc3ccc(N4CCNCC4)cn3)nc2n(C2CCCC2)c1=O [Palbociclib, reference compound]",,,,,,,,,,,,,,,,IC50 [20]: > 10 µM; IC50 [21]: 5.1 µM; IC50 [22]: > 10 µM; IC50 [23]: 3.6 µM; IC50 [24]: 1200 nM; IC50 [25]: > 10 µM; IC50 [26]: 1600 nM; IC50 [27]: > 10 µM; IC50 [28]: 1700 nM; IC50 [29]: 3.2 µM; IC50 [30]: 2700 nM; IC50 [31]: 6.6 µM; IC50 [32]: 4.1 µM; IC50 [33]: ~10 µM; IC50 [34]: > 10 µM
"COCCN[C@H]1CC[C@H](Nc2cc(-c3csc(NCc4ccc(F)cc4)n3)c(Cl)cn2)CC1 [Compound 12, (1r,4r)-N^1-(5-chloro-4-(2-((4-fluorobenzyl)amino)thiazol-4-yl)pyridin-2-yl)-N^4-(2-methoxyethyl)cyclohexane-1,4-diamine]",290 nM,310 nM,390 nM,200 nM,450 nM,480 nM,410 nM,190 nM,720 nM,390 nM,1100 nM,880 nM,410 nM,920 nM,470 nM,
"O=C(Nc1cc(-c2csc(NCC3CCOCC3)n2)c(Cl)cn1)c1ccc(F)cc1 [Compound 8, N-(5-chloro-4-(2-(((tetrahydro-2H-pyran-4-yl)methyl)amino)thiazol-4-yl)pyridin-2-yl)-4-fluorobenzamide]",200 nM,530 nM,1400 nM,150 nM,3600 nM,830 nM,2900 nM,310 nM,150 nM,720 nM,930 nM,550 nM,220 nM,1000 nM,1600 nM,

# Further molecules by falling GI50 [1], results first:
GI50 [1],GI50 [2],GI50 [3],GI50 [4],GI50 [5],GI50 [6],GI50 [7],GI50 [8],GI50 [9],GI50 [11],GI50 [12],GI50 [13],GI50 [14],GI50 [15],SMILES,GI50 [10],other results
130 nM,110 nM,110 nM,97 nM,310 nM,130 nM,120 nM,65 nM,350 nM,150 nM,1100 nM,140 nM,110 nM,290 nM,"COC[C@@H](C)N[C@H]1CC[C@H](Nc2cc(-c3csc(NCC4CCOCC4)n3)c(Cl)cn2)CC1 [Compound 6, (1R,4r)-N^1-(5-chloro-4-(2-(((tetrahydro-2H-pyran-4-yl)methyl)amino)thiazol-4-yl)pyridin-2-yl)-N^4-((R)-1-methoxypropan-2-yl)cyclohexane-1,4-diamine]",400 nM,
12 nM,1.1 nM,11 nM,2 nM,37 nM,23 nM,6.6 nM,56 nM,36 nM,12 nM,1200 nM,41 nM,7.9 nM,110 nM,"COCCN[C@H]1CC[C@H](Nc2cc(-c3csc(NCC4(C#N)CCOCC4)n3)c(Cl)cn2)CC1 [Compound 14, 4-((4-(5-chloro-2-(((1r,4r)-4-((2-methoxyethyl)amino)cyclohexyl)amino)pyridin-4-yl)thiazol-2-ylamino)methyl)tetrahydro-2H-pyran-4-carbonitrile]",1100 nM,inhibitory effect on normal cell CHO (in words) ([10]; CHO cells): no inhibitory effect; inhibitory effect on normal cell CHL (in words) ([12]; CHL cells): no inhibitory effect; IC50 [16]: > 10 µM; IC50 [17]: > 10 µM; IC50 [18]: 1.27 nM; IC50 [19]: > 10 µM
